Results published in patent US11820766B2, “Monoacylglycerol lipase modulators” (Janssen Pharmaceutica NV, priority 2018, dated 2023).

These compounds were tested against T1, human MGL from HeLa cells (Homo sapiens, UniProt Q99685) (assay: In vitro MGL activity assay: [glycerol-1,3-3H]-oleyl glycerol cleavage by MGL from HeLa cells). Conditions: 300 nM [Glycerol-1,3-3H]-oleyl glycerol, one hour incubation.
T1 construct: combining endogenously expressed MGL from HeLa cells with test compounds; endogenous in cells; host or cells: HeLa cells / cell homogenates
T1 sequence (Q99685 1-303): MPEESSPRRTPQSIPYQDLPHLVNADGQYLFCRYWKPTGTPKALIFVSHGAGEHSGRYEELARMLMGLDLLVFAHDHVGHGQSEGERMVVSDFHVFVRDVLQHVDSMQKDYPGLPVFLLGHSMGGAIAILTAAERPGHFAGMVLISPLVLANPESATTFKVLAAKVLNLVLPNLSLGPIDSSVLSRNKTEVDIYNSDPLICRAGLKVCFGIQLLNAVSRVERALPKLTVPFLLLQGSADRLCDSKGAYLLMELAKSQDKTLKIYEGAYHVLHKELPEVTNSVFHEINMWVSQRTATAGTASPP
Type: biochemical
Source text: MGL is the predominant hydrolase in HeLa cells/cell homogenates.

SMILES	IC50 [nM]
Cn1nc2c(c1-c1ccccc1)CCN(C(=O)c1noc3cc(Cl)ccc13)C2 [Example 54, (6-Chlorobenzo[d]isoxazol-3-yl)(2-methyl-3-phenyl-2,4,5,7-tetrahydro-6H-pyrazolo[3,4-c]pyridin-6-yl)methanone]	1120
Cn1nc2c(c1-c1ccccc1)CCN(C(=O)c1ccc3ocnc3c1)C2 [Example 58, Benzo[d]oxazol-5-yl(2-methyl-3-phenyl-2,4,5,7-tetrahydro-6H-pyrazolo[3,4-c]pyridin-6-yl)methanone]	4180
Cn1nc2c(c1-c1ccccc1)CCN(C(=O)c1cccc3ncsc13)C2 [Example 59, Benzo[d]thiazol-7-yl(2-methyl-3-phenyl-2,4,5,7-tetrahydro-6H-pyrazolo[3,4-c]pyridin-6-yl)methanone]	403
Cn1nc2c(c1-c1ccccc1)CCN(C(=O)c1ccc3[nH]ncc3c1)C2 [Example 64, (1H-Indazol-5-yl)(2-methyl-3-phenyl-2,4,5,7-tetrahydro-6H-pyrazolo[3,4-c]pyridin-6-yl)methanone]	56.2
Cn1nc2c(c1-c1ccccc1)CCN(C(=O)c1ccc3cn[nH]c3c1)C2 [Example 68, (1H-Indazol-6-yl)(2-methyl-3-phenyl-2,4,5,7-tetrahydro-6H-pyrazolo[3,4-c]pyridin-6-yl)methanone]	2190
Cn1nc2c(c1-c1ccccc1)CCN(C(=O)c1nn(C)c3ccccc13)C2 [Example 70, (1-Methyl-1H-indazol-3-yl)(2-methyl-3-phenyl-2,4,5,7-tetrahydro-6H-pyrazolo[3,4-c]pyridin-6-yl)methanone]	380
Cn1nc2c(c1-c1ccccc1)CCN(C(=O)c1ccc3[nH]cnc3c1)C2 [Example 71, (1H-Benzo[d]imidazol-5-yl)(2-methyl-3-phenyl-2,4,5,7-tetrahydro-6H-pyrazolo[3,4-c]pyridin-6-yl)methanone]	1010
Cn1nc2c(c1-c1ccccc1)CCN(C(=O)c1cccc3[nH]c(C(F)(F)F)nc13)C2 [Example 72, (2-Methyl-3-phenyl-2,4,5,7-tetrahydro-6H-pyrazolo[3,4-c]pyridin-6-yl)(2-(trifluoromethyl)-1H-benzo[d]imidazol-4-yl)methanone]	2320
Cn1nc2c(c1-c1ccccc1)CCN(C(=O)c1cccc3ccnn13)C2 [Example 75, (2-Methyl-3-phenyl-2,4,5,7-tetrahydro-6H-pyrazolo[3,4-c]pyridin-6-yl)(pyrazolo[1,5-a]pyridin-7-yl)methanone]	1800
Cn1nc2c(c1-c1ccccc1)CCN(C(=O)c1ccn3cncc3c1)C2 [Example 78, Imidazo[1,5-a]pyridin-7-yl(2-methyl-3-phenyl-2,4,5,7-tetrahydro-6H-pyrazolo[3,4-c]pyridin-6-yl)methanone]	2000
Cn1nc2c(c1-c1ccccc1)CCN(C(=O)c1cccc3cncn13)C2 [Example 79, Imidazo[1,5-a]pyridin-5-yl(2-methyl-3-phenyl-2,4,5,7-tetrahydro-6H-pyrazolo[3,4-c]pyridin-6-yl)methanone]	1190
Cn1nc2c(c1-c1ccccc1)CCN(C(=O)c1cccc3nccn13)C2 [Example 80, Imidazo[1,2-a]pyridin-5-yl(2-methyl-3-phenyl-2,4,5,7-tetrahydro-6H-pyrazolo[3,4-c]pyridin-6-yl)methanone]	2330
Cn1nc2c(c1-c1ccccc1)CCN(C(=O)c1cnc3ccccn13)C2 [Example 81, Imidazo[1,2-a]pyridin-3-yl(2-methyl-3-phenyl-2,4,5,7-tetrahydro-6H-pyrazolo[3,4-c]pyridin-6-yl)methanone]	1320
Cn1nc2c(c1-c1ccccc1)CCN(C(=O)c1c[nH]c3ccncc13)C2 [Example 83, (2-Methyl-3-phenyl-2,4,5,7-tetrahydro-6H-pyrazolo[3,4-c]pyridin-6-yl)(1H-pyrrolo[3,2-c]pyridin-3-yl)methanone]	1500
Cn1nc2c(c1-c1ccccc1)CCN(C(=O)c1ccnc3c1ccn3C)C2 [Example 84, (1-Methyl-1H-pyrrolo[2,3-b]pyridin-4-yl)(2-methyl-3-phenyl-2,4,5,7-tetrahydro-6H-pyrazolo[3,4-c]pyridin-6-yl)methanone]	48.3
Cn1nc2c(c1-c1ccccc1)CCN(C(=O)c1cccc3ncnn13)C2 [Example 85, [1,2,4]Triazolo[1,5-a]pyridin-5-yl(2-methyl-3-phenyl-2,4,5,7-tetrahydro-6H-pyrazolo[3,4-c]pyridin-6-yl)methanone]	7140

More lines, in order of falling IC50, values ahead:

IC50 [nM]	SMILES
6110	Cn1nc2c(c1-c1ccccc1)CCN(C(=O)c1ncn3ccccc13)C2 [Example 76, Imidazo[1,5-a]pyridin-1-yl(2-methyl-3-phenyl-2,4,5,7-tetrahydro-6H-pyrazolo[3,4-c]pyridin-6-yl)methanone]
5160	Cn1nc2c(c1-c1ccccc1)CCN(C(=O)c1ccc3cncn3c1)C2 [Example 77, Imidazo[1,5-a]pyridin-6-yl(2-methyl-3-phenyl-2,4,5,7-tetrahydro-6H-pyrazolo[3,4-c]pyridin-6-yl)methanone]
4810	Cc1nc2cccc(Cl)n2c1C(=O)N1CCc2c(nn(C)c2-c2ccccc2)C1 [Example 82, (5-Chloro-2-methylimidazo[1,2-a]pyridin-3-yl)(2-methyl-3-phenyl-2,4,5,7-tetrahydro-6H-pyrazolo[3,4-c]pyridin-6-yl)methanone]
2500	Cn1nc2c(c1-c1ccccc1)CCN(C(=O)c1ccn3nccc3c1)C2 [Example 73, (2-Methyl-3-phenyl-2,4,5,7-tetrahydro-6H-pyrazolo[3,4-c]pyridin-6-yl)(pyrazolo[1,5-a]pyridin-5-yl)methanone]
1680	Cn1nc2c(c1-c1ccccc1)CCN(C(=O)c1nc3ccccc3o1)C2 [Example 57, Benzo[d]oxazol-2-yl(2-methyl-3-phenyl-2,4,5,7-tetrahydro-6H-pyrazolo[3,4-c]pyridin-6-yl)methanone]
1640	Cn1nc2c(c1-c1ccccc1)CCN(C(=O)c1nc3ccccc3s1)C2 [Example 62, Benzo[d]thiazol-2-yl(2-methyl-3-phenyl-2,4,5,7-tetrahydro-6H-pyrazolo[3,4-c]pyridin-6-yl)methanone]
1630	Cn1nc2c(c1-c1ccccc1)CCN(C(=O)c1cccc3cn[nH]c13)C2 [Example 67, (1H-Indazol-7-yl)(2-methyl-3-phenyl-2,4,5,7-tetrahydro-6H-pyrazolo[3,4-c]pyridin-6-yl)methanone]
755	Cn1nc2c(c1-c1ccccc1)CCN(C(=O)c1cccc3scnc13)C2 [Example 61, Benzo[d]thiazol-4-yl(2-methyl-3-phenyl-2,4,5,7-tetrahydro-6H-pyrazolo[3,4-c]pyridin-6-yl)methanone]
662	Cn1nc2c(c1-c1ccccc1)CCN(C(=O)c1n[nH]c3c(Cl)cccc13)C2 [Example 69, (7-Chloro-1H-indazol-3-yl)(2-methyl-3-phenyl-2,4,5,7-tetrahydro-6H-pyrazolo[3,4-c]pyridin-6-yl)methanone]
613	Cn1nc2c(c1-c1ccccc1)CCN(C(=O)c1cnn3ccccc13)C2 [Example 74, (2-Methyl-3-phenyl-2,4,5,7-tetrahydro-6H-pyrazolo[3,4-c]pyridin-6-yl)(pyrazolo[1,5-a]pyridin-3-yl)methanone]
550	Cn1nc2c(c1-c1ccccc1)CCN(C(=O)c1ccc3scnc3c1)C2 [Example 60, Benzo[d]thiazol-5-yl(2-methyl-3-phenyl-2,4,5,7-tetrahydro-6H-pyrazolo[3,4-c]pyridin-6-yl)methanone]
300	Cn1nc2c(c1-c1ccccc1)CCN(C(=O)c1n[nH]c3ccccc13)C2 [Example 66, (1H-Indazol-3-yl)(2-methyl-3-phenyl-2,4,5,7-tetrahydro-6H-pyrazolo[3,4-c]pyridin-6-yl)methanone]
293	Cn1nc2c(c1-c1ccccc1)CCN(C(=O)c1ccc3ncoc3c1)C2 [Example 56, Benzo[d]oxazol-6-yl(2-methyl-3-phenyl-2,4,5,7-tetrahydro-6H-pyrazolo[3,4-c]pyridin-6-yl)methanone]
226	Cn1nc2c(c1-c1ccccc1)CCN(C(=O)c1onc3ccccc13)C2 [Example 55, Benzo[c]isoxazol-3-yl(2-methyl-3-phenyl-2,4,5,7-tetrahydro-6H-pyrazolo[3,4-c]pyridin-6-yl)methanone]
101	Cn1nc2c(c1-c1ccccc1)CCN(C(=O)c1cccc3[nH]ncc13)C2 [Example 65, (1H-Indazol-4-yl)(2-methyl-3-phenyl-2,4,5,7-tetrahydro-6H-pyrazolo[3,4-c]pyridin-6-yl)methanone]
49	Cn1nc2c(c1-c1ccccc1)CCN(C(=O)c1nsc3ccccc13)C2 [Example 63, Benzo[d]isothiazol-3-yl(2-methyl-3-phenyl-2,4,5,7-tetrahydro-6H-pyrazolo[3,4-c]pyridin-6-yl)methanone]
47.3	Cn1nc2c(c1-c1ccccc1)CCN(C(=O)c1nccc3ccccc13)C2 [Example 88, Isoquinolin-1-yl(2-methyl-3-phenyl-2,4,5,7-tetrahydro-6H-pyrazolo[3,4-c]pyridin-6-yl)methanone]
39.8	Cn1nc2c(c1-c1ccccc1)CCN(C(=O)c1cncc3ccccc13)C2 [Example 87, Isoquinolin-4-yl(2-methyl-3-phenyl-2,4,5,7-tetrahydro-6H-pyrazolo[3,4-c]pyridin-6-yl)methanone]
32.4	Cn1nc2c(c1-c1ccccc1)CCN(C(=O)c1ccnc3ccccc13)C2 [Example 86, (2-Methyl-3-phenyl-2,4,5,7-tetrahydro-6H-pyrazolo[3,4-c]pyridin-6-yl)(quinolin-4-yl)methanone]
